Measurements published in patent US8513182B2, “Natural polypeptides for oral health care” (priority 2007, dated 2013).
Where two headings read alike, the source gives them in different places. Ends that are not written are not given here.

What was measured:
oral bacteria = settings: bacteria grown in a broth media, in-vitro; cited from earlier work
bacteria adhering to SHA = settings: SHA treated with drug, washed, placed in a culture of bacteria; cited from earlier work
S. mutans = settings: literature (Gibbons and Hay 1989; Shimotoyodeme et al 2006), cited from earlier work
Streptococcus mutans [1] = assay: disk diffusion assay on confluent S. mutans culture; type: cell-based; settings: for antibacterial activity (zone of inhibition) against S. mutans: FIG. 4, lactoferrin, statherin and fusion peptides on disk
Source text: In all panels the circle is a filter paper disk impregnated with different agents (PBS=phosphate buffered saline which is a control); LF “R”=the 11 mer of lactoferrin with arginine (R) in amino acid position 29; LF “K” the 11 mer of lactoferrin with lysine (K) in amino acid position 29. The disk containing a standard concentration of one of the agents is placed over a confluent culture of Streptococcus mutans.
In all panels the circle is a disk impregnated with different agents. The disk is placed over a confluent culture of Streptococcus mutans. […] Panel top left: Lactoferrin (timer) where the lysine is present. […] Middle and top right panel are the two statherin peptides, a 6 mer and a 15 mer. […] Panel bottom left: lactoferrin 11 mer noted as LF fused to the Statherin 6 mer. […] Panel bottom right: Lactoferrin 11 mer noted as LF fused to Statherin 15 mer. […] The two panels on the bottom show the level of interference when the LF is added to the two Statherins. The activity of the LF when the smaller Statherin peptide is fused to it is greater as compared to when the larger peptide is fused to the LF.
The first was a disk diffusion screening assay we developed in our laboratory. In that assay we grew an overnight culture of S. mutans in a broth consisting of trypticase soy and 20% sucrose added. Cells were grown overnight and then streaked to confluence on Mitis Salivarius Bacitracin (MSB) agar. In addition we took a 25 cm sterile filter paper disk and added 200 ul of either whole saliva, the saliva containing the lysine or the arginine variant of lactoferrin, allowed this saliva to dry onto the filter paper for 1 hour and then placed the filter paper containing the added protein over the center of the confluent culture of S. mutans on the MSB agar. […] This assay was used to screen for potential antimicrobial activity.
The disk diffusion assay allows for specific proteins to be added to a filter paper disk whereby the protein can then diffuse into the agar to determine antimicrobial activity. The following peptides were added to the disk; R=arginine form of Lf (FIG. 1(a)). K=lysine form of Lf (FIG. 1(a). PBS=phosphate buffered saline which is used as the control solution and to which is added either the R form or K form of Lf. In FIG. 1 below we added R form, or the K form at a concentration of 1 ug/ml to 200 ul of PBS and then added that to the surface of a 25 cm filter paper strip and allowed the strip to dry for 1 hour. We then streaked a culture of S. mutans to confluence onto a plate of trypicase soy agar containing 20% sucrose and then placed the dried disk over the center of the plate. The cultures were allowed to grow in an incubator set at 37° C. and then evaluated either at 24 or 48 hours after inoculation. […] No zone was seen on disk R/PBS or R/Saliva, where the arginine variant was substituted for the lysine variant (FIG. 3). The R and K Form of LF peptide was added at a concentration of about 15 ug/ml.

bacterial plaque = settings: in vitro and in vivo; cited from earlier work
Streptococcus mutans [2] = assay: killing of Streptococcus mutans by synthetic lactoferrin peptide; type: cell-based

In the case of Penicillin, the “concentration effective against oral bacteria” value (oral bacteria) is listed as 1 µg/mL and the “adherence of bacteria to treated SHA” value (bacteria adhering to SHA) is listed as “no effect”.
In the case of “ST6: statherin peptide, a 6 mer (DSSEEK; ends and bridges not checked; UniProt P02808 20-25, looked up, fragment)”, the “S. mutans attachment / binding to the tooth surface” value (from here on “S. mutans attachment / binding”) (S. mutans) is given as “also has this capacity”, the “antibacterial activity (zone of inhibition) against S. mutans” value (Streptococcus mutans [1]) is given as “do not have any antimicrobial activity” and the “antibacterial activity (zone of inhibition) against S. mutans” value (Streptococcus mutans [1]; listed as Statherin 6 mer) is given as “no zone of inhibition”.
For [H]/N=C(\N/C(=N/[H])NCCCCCCNC(=N)NC(=N)Nc1ccc(Cl)cc1)Nc1ccc(Cl)cc1 [chlorhexidine], the “bacterial plaque attachment to teeth” value (bacterial plaque) is listed as “reduce bacterial plaque attachment to teeth”.
With “LF “K”: the 11 mer of lactoferrin with lysine (K) in amino acid position 29 (FQWQRNMRKVR; Active form of synthetic peptide LF11 based on human lactoferrin peptide)” the “killing of Streptococcus mutans” value (Streptococcus mutans [2]) was “kills Streptococcus mutans”, the “zone of inhibition of S. mutans growth around disk” value (Streptococcus mutans [1]; FIG. 3, peptide in PBS dried on filter paper disk, 37° C., 24 or 48 hours, listed as K) was “zone of inhibition” and the “zone of inhibition of S. mutans growth around disk” value (Streptococcus mutans [1]; FIG. 3, peptide in PBS dried on filter paper disk, 37° C., 24 or 48 hours, listed as lysine variant of Lactoferrin) was “clear zone”. The “antibacterial activity (zone of inhibition) against S. mutans” value (Streptococcus mutans [1]) was “inhibits the growth of S. mutans” and the “zone of inhibition of S. mutans growth around disk” value (Streptococcus mutans [1]; peptide suspended in normal saliva, dried on filter paper disk) was “zone of inhibition”.
In the case of “Statherin: small salivary tyrosine-rich phosphoprotein containing 43 amino acids (DSSEEKFLRRIGRFGYGYGPYQPVPEQPLYPQPYQPQYQQYTF; also: phosphoprotein, sites not given here; UniProt P02808 20-62, looked up)”, the “S. mutans attachment / binding” value (S. mutans) is given as “reduce S. mutans binding to the tooth surface” and the “S. mutans attachment / binding” value (S. mutans; listed as statherin) is given as “inhibit S. mutans attachment”.
With “STAT-LF 6: fusion protein: lactoferrin 11 mer (LF) fused to the Statherin 6 mer (DDDEEKFQWQRNMRKVR; Synthetic fusion peptide STAT-LF6)” the “antibacterial activity (zone of inhibition) against S. mutans” value (Streptococcus mutans [1]; listed as LF and the Statherin 6 mer) was “most active fusion peptide”, the “antibacterial activity (zone of inhibition) against S. mutans” value (Streptococcus mutans [1]; listed as LF fused to the Statherin 6) was “retains the activity of the Lactoferrin 11 mer” and the “antibacterial activity (zone of inhibition) against S. mutans” value (Streptococcus mutans [1]; listed as LF fused to the Statherin 6 mer) was “retains the activity of the Lactoferrin 11 mer”.
